Results: patent US20100144779A1, “Marine Alkalod Makaluvamines and Derivatives Thereof” (THE UAB RESEARCH FOUNDATION, priority 2007, published 2010)

Tests used:
Type in all cases: cell-based, human
[1] = tested on: p53; experiment: Protein expression, Western blot in MCF-7 cells; details: 1 μM, 6 h (FIG. 4A)
Protocol: (§1) In FIG. 4A, MCF-7 cells were exposed to 1 μM concentration of the indicated compounds for 6 hours. Western blots were probed with antibodies specific for the proteins indicated. Numbers below each lane show densitometry readings for each lane as compared to control. […] Western blots were probed with antibodies specific for the proteins indicated.
(§2) To determine the disclosed compounds effect on protein expression in human breast cancer cells, cultured MCF-7 cells were exposed to various concentrations of the test compounds for 6 h (FIG. 4A) or 24 h (FIG. 4B). Cell lysates were fractionated with identical amounts of protein by SDS-PAGE and transferred to Bio-Rad trans-Blot nitrocellulose membranes (Bio-Rad Laboratories, Hercules, Calif.). The nitrocellulose membrane was incubated in blocking buffer (Tris-buffered saline containing 0.1% Tween 20 and 5% nonfat milk) for 1 h at room temperature, then with the appropriate primary antibody overnight at 4° C. or 2 h at room temperature with gentle shaking. Finally, the membrane was washed three times with the washing buffer (Tris-buffered saline containing 0.1% Tween 20) for 15 min, incubated with goat anti mouse/rabbit IgG-horseradish peroxidase-conjugated antibody (Bio-Rad) for 1 h at room temperature, and washed again (in triplicate). The protein of interest was detected by enhanced chemiluminescence reagents from PerkinElmer LAS, Inc (Boston, Mass.).

[2] = tested on: p21; experiment: Protein expression, Western blot in MCF-7 cells; details: 1 μM, 6 h (FIG. 4A)
Protocol: as §1, §2

[3] = tested on: MDM2; experiment: Protein expression, Western blot in MCF-7 cells; details: for expression of MDM2: 1 μM, 6 h (FIG. 4A)
Protocol: as §1, §2

[4] = tested on: EKVX; experiment: NCI60 cell line screen (SRB); details: Non-Small Cell Lung Cancer, 48 h
Protocol: (§3) This panel implements the NCI60 cell line screen, including leukemia, non-small cell lung cancer, colon cancer, central nervous system cancer, melanoma, ovarian cancer, renal cancer, prostate cancer and breast cancer. The cell lines tested are specified in Table 3.
(§4) Generally, the human tumor cell lines of the cancer screening panel are grown in RPMI 1640 medium containing 5% fetal bovine serum and 2 mM L-glutamine. For a typical screening experiment, cells are inoculated into 96 well microtiter plates in 100 μL at plating densities ranging from 5,000 to 40,000 cells/well depending on the doubling time of individual cell lines. After cell inoculation, the microtiter plates are incubated at 37° C., 5% CO2, 95% air and 100% relative humidity for 24 h prior to addition of experimental drugs. After 24 h, two plates of each cell line are fixed in situ with TCA, to represent a measurement of the cell population for each cell line at the time of drug addition (Tz). Experimental drugs are solubilized in dimethyl sulfoxide at 400-fold the desired final maximum test concentration and stored frozen prior to use. At the time of drug addition, an aliquot of frozen concentrate is thawed and diluted to twice the desired final maximum test concentration with complete medium containing 50 μg/ml gentamicin. Additional four, 10-fold or ½ log serial dilutions are made to provide a total of five drug concentrations plus control. Aliquots of 100 μl of these different drug dilutions are added to the appropriate microtiter wells already containing 100 μl of medium, resulting in the required final drug concentrations.
(§5) Following drug addition, the plates are incubated for an additional 48 h at 37° C., 5% CO2, 95% air, and 100% relative humidity. For adherent cells, the assay is terminated by the addition of cold TCA. Cells are fixed in situ by the gentle addition of 50 μl of cold 50% (w/v) TCA (final concentration, 10% TCA) and incubated for 60 minutes at 4° C. The supernatant is discarded, and the plates are washed five times with tap water and air dried. Sulforhodamine B (SRB) solution (100 μl) at 0.4% (w/v) in 1% acetic acid is added to each well, and plates are incubated for 10 minutes at room temperature. After staining, unbound dye is removed by washing five times with 1% acetic acid and the plates are air dried. Bound stain is subsequently solubilized with 10 mM trizma base, and the absorbance is read on an automated plate reader at a wavelength of 515 nm. For suspension cells, the methodology is the same except that the assay is terminated by fixing settled cells at the bottom of the wells by gently adding 50 μl of 80% TCA (final concentration, 16% TCA). Using the seven absorbance measurements (time zero, Tz, control growth, (control), and test growth in the presence of drug at the five concentration levels (Ti)), the percentage growth is calculated at each of the drug concentrations levels. Percentage growth inhibition is calculated as:
(§6) [(Ti−Tz)/(C−Tz)]×100 for concentrations for which Ti>/=Tz
(§7) [(Ti−Tz)/Tz]×100 for concentrations for which Ti<Tz.

[5] = tested on: MALME-3M; experiment: NCI60 cell line screen (SRB); details: Melanoma, 48 h
Protocol: as §3, §4, §5, §6, §7

[6] = tested on: NCI-H552; experiment: NCI60 cell line screen (SRB); details: NCI-H552, Non-Small Cell Lung Cancer, 48 h
Protocol: as §3, §4, §5, §6, §7

[7] = tested on: NCI/ADR-RES; experiment: NCI60 cell line screen (SRB); details: Breast Cancer, 48 h
Protocol: as §3, §4, §5, §6, §7

[8] = tested on: OVCAR8; experiment: NCI60 cell line screen (SRB); details: OVCAR8, Ovarian Cancer, 48 h
Protocol: as §3, §4, §5, §6, §7

[9] = tested on: RXF 393; experiment: NCI60 cell line screen (SRB); details: RXF 393, Renal Cancer, 48 h
Protocol: as §3, §4, §5, §6, §7

[10] = tested on: K-562; experiment: NCI60 cell line screen (SRB); details: K-562, Leukemia, 48 h
Protocol: as §3, §4, §5, §6, §7

[11] = tested on: OVCAR4; experiment: NCI60 cell line screen (SRB); details: OVCAR4, Ovarian Cancer, 48 h
Protocol: as §3, §4, §5, §6, §7

Compound	expression of p53 [1]	expression of p21 [2]	expression of MDM2 [3]	expression level of MDM2 ([3]; 24 h (FIG. 4B))	GI50 ([4]; Homo sapiens)	GI50 ([5]; Homo sapiens)	GI50 ([6]; Homo sapiens)	GI50 ([7]; Homo sapiens)	GI50 ([8]; Homo sapiens, OVCAR-8)	GI50 ([9]; Homo sapiens)	GI50 ([10]; Homo sapiens, K562)	GI50 ([11]; Homo sapiens, OVCAR-4)	GI50 [4]	GI50 [5]	GI50 [6]	GI50 [7]	GI50 [8]	GI50 [9]	GI50 [10]	GI50 [11]
O=C(O)C(F)(F)F.O=C1C(NCc2ccc(F)cc2)=CC2=NCCc3c[nH]c1c32 [Compound 28]	decreased the expression	decreased the expression	inhibited the expression	decreased	0.453 µM	0.208 µM	2 µM	3.11 µM	1.97 µM	≤ 0.01 µM	1.07 µM	1.09 µM								
O=C1C(NCCc2ccccc2)=CC2=NCCc3c[nH]c1c32 [Compound 4d]	increased the expression	increased the expression	increased the expression																	
CNC1=CC2=NCCc3c[nH]c(c32)C1=O [Compound 4a]													2.2 µM	1.21 µM	4.13 µM	9.33 µM	3.19 µM	4.22 µM	2.19 µM	1.08 µM
O=C1C(NCc2ccccc2)=CC2=NCCc3c[nH]c1c32 [Compound 4c]	increased the expression	decreased the expression	inhibited the expression										0.271 µM	0.3 µM	1.69 µM	3.51 µM	2.08 µM	2.09 µM	2.36 µM	0.624 µM
O=C(O)C(F)(F)F.O=C1C(NCCc2ccc3c(c2)OCO3)=CC2=NCCc3c[nH]c1c32 [Compound 6]	increased the expression				1.96 µM	0.343 µM	2.62 µM	1.76 µM	1.62 µM		3.43 µM	0.971 µM								
COc1ccc(CCNC2=CC3=NCCc4c[nH]c(c43)C2=O)cc1OC.O=C(O)C(F)(F)F [Compound 20]	decreased the expression	decreased the expression	inhibited the expression		3.08 µM	0.249 µM	2.24 µM	12.4 µM	1.79 µM		16.9 µM	1.16 µM								
